Experimental data as given in patent US4812458A, “6,7-disubstituted-2,3-dihydroxyquinoxaline compounds, pharmaceutical compositions thereof, and their use as neuroleptics” (A/S Ferrosan, priority 1987, dated 1989).
≈ marks a conversion by molar mass, not a printed value.

Legend:
[1] = system: quisqualic acid stimulated Na+-efflux from rat striatal slices; test: Antagonism of quisqualic acid induced 22Na+-release; assay type: cell-based; conditions: concentration reducing quisqualic acid (2 μg/ml) stimulated 22Na+ efflux rate by 50%
Procedure: (§1) The pharmacological properties of the compounds of the present invention can be illustrated by determining their capability for displacing radioactively labelled 2-amino-3-hydroxy-5-methyl-4-isoxazolepropionic acid (AMPA) from the quisqualate type receptors.
The antagonism is measured by determining the EC50 value which represents the concentration which reduces the rate of quisqualic acid stimulated sodium efflux by 50%.
Antagonism of quisqualic acid induced ^22 Na^+ -release
Slices from rat striatum were preincubated with ^22 Na^+ for 30 min. After the ^22 Na^+ loading period, the slices were successively and every minute transferred through a series of tubes, each containing 1.5 ml of a non-radioactive physiological solution saturated with O2, with the help of a basket shaped sieve. Quisqualic acid (2 μg/ml) was present in the last 5 tubes and the compound to be tested was present in the same 5 tubes plus 3 tubes before. The amount of radioactivity in each washout tube as well as that left in the slices at the end of the experiment was measured by scintillation counting. EC50 -values were calculated by Hill analysis from at least three different concentrations of test compound as the concentration of test compound which reduces the efflux rate of ^22 Na^+ -ions to 50% of the efflux rate in the absence of test compound.

[2] = target: quisqualate type receptors (rat cerebral cortical membrane homogenate); test: 3H-AMPA binding (displacement of 3H-AMPA from the quisqualate type receptors); conditions: displacement of 50% of specific 3H-AMPA binding; 5 nM 3H-AMPA, 0° C., 30 min, pH 7.1
Procedure: as §1
The displacement activity of the compounds may be shown by determining the IC50 value which represents the concentration (μg/ml) which causes a displacement of 50% of the specific binding of ^3 H-AMPA.
500 μl of thawed rat cerebal cortical membrane homogenate in Tris-HCl (30 mM), CaCl2 (2.5 mM) and KSCN ([…]) pH 7.1 were incubated at 0° C. for 30 min. with 25 μl ^3 H-AMPA (5 nM final concentration) and the test compound and buffer. Nonspecific binding was determined by incubation with L-glutamic acid (600 μM final concentration). The binding reaction was terminated by adding 5 ml of ice-cold buffer followed by filtration through Whatman GF/C glass fibre filters and 2×5 ml wash with ice-cold buffer. Bound radioactivity was measured by scintillation counting. IC50 was determined by Hill analysis of at least four concentrations of test compound.

| EC50 [1] [µg/mL] | IC50 [2] [µg/mL] | SMILES |
| --- | --- | --- |
| 0.7 (≈ 3.02 µM) | 0.06 (≈ 0.258 µM) | N#Cc1cc2nc(O)c(O)nc2cc1[N+](=O)[O-] [Example 2, 6-Cyano-2,3-dihydroxy-7-nitroquinoxaline] |
| 3 (≈ 12.1 µM) | 0.26 (≈ 1.05 µM) | [N-]=[N+]=Nc1cc2nc(O)c(O)nc2cc1[N+](=O)[O-] [Example 3, 6-Azido-2,3-dihydroxy-7-nitroquinoxaline] |
|  | 0.39 (≈ 1.53 µM) | N#Cc1cc2nc(O)c(O)nc2cc1C(F)(F)F [Example 5, 6-Cyano-2,3-dihydroxy-7-trifluoromethylquinoxaline] |
| 3 (≈ 12.4 µM) | 0.43 (≈ 1.78 µM) | O=[N+]([O-])c1cc2nc(O)c(O)nc2cc1Cl [Example 7, 6-Chloro-2,3-dihydroxy-7-nitroquinoxaline] |
|  | 0.82 (≈ 3.7 µM) | N#Cc1cc2nc(O)c(O)nc2cc1Cl [Example 8, 6-Chloro-7-cyano-2,3-dihydroxyquinoxaline] |
